In patent US20250235429A1, “TREATMENT OF DISEASES VIA ADMINISTRATION OF BUNTANETAP AND AN ANTIDIABETIC AGENT” (ANNOVIS BIO, INC., priority 2024, published 2025):
Entries after “also recorded” stand apart in the source; their conditions may differ. Marks after values point to notes of the source that are not given here.

Experiments:
[1] = tested on: traumatic brain injury rats; settings: cited from earlier work
rat acute glaucoma model = settings: cited from earlier work
[2] = tested on: APP in SH-SY-5Y human neuroblastoma cells; settings: cited from earlier work
Huntingtin Protein = settings: through Translational Suppression; cited from earlier work
[3] = tested on: early AD patients and early PD patients; settings: cited from earlier work
APP/PS1 transgenic mice = test: Contextual fear conditioning (FC), associative memory; assay type: in vivo; settings: Buntanetap 1 mg/Kg and/or dulaglutide 0.1 mg/Kg
Experimental: Animals: Heterozygous double transgenic mice expressing both human APP (K670N:M671L) and human PS1 (M146L) (line 6.2) and their wild-type non-transgenic littermates, both males and females, were used for these experiments. They were obtained by a breeding colony maintained at the animal facility of Columbia University. They were genotyped through PCR on tail samples. Animals were injected i.p. from the age of […] for 1 month prior to starting behavioral assessment which lasted for 2 weeks during which treatment continued. Behavioral assessment examined spatial and associative memory. Finally, mice were sacrificed for electrophysiological assessment of synaptic function.
Mice were coded to blind investigators with respect to genotype and treatment. Results were expressed with Standard Error of the Mean (SEM). […] Results were analyzed by ANOVA analysis with post-hoc correction with the combination or genotype as main effect. […]
The combination effect on associative memory was assessed through fear conditioning (FC). […] Freezing behavior, defined as the absence of movements except for that needed for breathing, was scored using Noldus software. Contextual fear learning, a type of memory for which hippocampal function is indispensable, was evaluated 24 hrs after training by measuring freezing responses for 5 min in the same chamber where the mice have been trained. […]

[4] = tested on: patients with mild to moderate AD; test: Phase II/III dose-ranging study of buntanetap in mild to moderate AD (ADAS-Cog 11); assay type: in vivo, human
Experimental: A randomized, double-blind, placebo-controlled Phase II/III study trial investigating the efficacy, safety, and tolerability of buntanetap in patients with mild to moderate AD was conducted. This was a dose-ranging study where patients received either one of three doses of buntanetap (7.5 mg, 15 mg, or 30 mg) or placebo on top of their standard of care for 12 weeks. In this study, over 700 patients were screened, a total of 353 patients were enrolled, and 325 patients completed the study across 54 sites in the US. The study included mild to moderate AD patients whose Mini Mental State Examination (MMSE) scores at baseline ranged from 14 to 24. (www.clinicaltrials.gov (NCT05686044)).
Beyond safety, the trial assessed the changes in two co-primary endpoints: Alzheimer's Disease Assessment Scale-Cognitive Subscale 11 (ADAS-Cog 11) and Alzheimer's Disease Cooperative Study Clinician's Global Impression of Change (ADCS-CGIC), which assess cognition and activities of daily living. The study monitored for safety and collected plasma to measure several biomarkers to assess the disease state, potential disease progression, and treatment effects.

[5] = tested on: fully differentiated Down syndrome nerve cells; settings: cited from earlier work
aSYN [6] = settings: transgenic Parkinson's animals, in the brain and in the gut; cited from earlier work
[7] = tested on: APP, Tau, and aSYN in the cerebrospinal fluid (CSF) of MCI subjects; test: CSF biomarkers in MCI subjects before and after 10 days of buntanetap (proof of mechanism); settings: mildly cognitive impaired patients, 10 days of administration (FIG. 3)
APP and its fragments = settings: APP/PS1 transgenic mice; cited from earlier work
[8] = cited from earlier work
aSYN [9] = settings: neuroblastoma cells; cited from earlier work
[10] = tested on: Ts65dn mouse model of Down syndrome (DS); settings: cited from earlier work

CN1CC[C@]2(C)c3cc(OC(=O)Nc4ccccc4)ccc3N(C)C12 (stereo partly drawn) [Buntanetap, (3aR)-1,3a,8-trimethyl-1,2,3,3a,8,8a-hexahydropyrrolo[2,3-b]indol-5-yl phenylcarbamate]
inflammation ([1]; rat brain after TBI): lowered | impaired synaptic transmission ([1]; rat striatum after traumatic brain injury (TBI)): Normalized | nerve cells ([1]; rat substantia Ingra after TBI): protected | memory and learning ([1]; traumatic brain injury rats): Preserved | retina (rat acute glaucoma model; acute glaucoma): Preserved | nerve cells (rat acute glaucoma model; rat acute glaucoma model): protected | levels of APP in vitro [2]: lowers | levels of Huntingtin Protein (Huntingtin Protein): reduced | levels of neurotoxic proteins and inflammatory factors (biomarker data) ([3]; AD and PD cohorts): trend in lowering | axonal and synaptic function ([3]; AD and PD patients): improved | blood brain barrier crossing ([3]; AD and PD patients): crossed the blood brain barrier | inflammatory markers ([3]; AD and PD patients): reduced | neurotoxic protein biomarkers ([3]; AD and PD patients): reduced | ADAS-Cog11 and WAIS coding (psychometric tests) ([3]; AD patients, 80 mg QD): statistically significant improvements | cognition as measured by ADAS-Cog11 and WAIS coding speed ([3]; AD patients, statistical significance versus baseline at 80 mg dose but not placebo): improved | MDS-UPDRS and WAIS coding (psychometric tests) ([3]; PD patients, 5-80 mg QD): statistically significant improvements | motor function as measured by MDS-UPDRS (Part II, III, IV and total) ([3]; PD patients, all doses, maximum improvement for 10 & 20 mg): improved | WAIS speed and accuracy ([3]; PD patients, significant versus placebo in 5 mg, 20 mg and 80 mg arms): improved | safety and tolerability ([3]; doses up to 80 mg in both AD and PD patients): well tolerated | Cmax and AUC ([3]; plasma, without evidence for a plateau up to 80 mg QD): increased with dose | impairment of associative memory measured through contextual fear conditioning (FC) (APP/PS1 transgenic mice): did not ameliorate | Non-Responders (Number) ([4]; 7.5 mg): 5 | Non-Responders (Percentage) ([4]; 7.5 mg): (26.32%) | Responders (Number) ([4]; 7.5 mg): 14 | Responders (Percentage) ([4]; 7.5 mg): (73.68%)** | Non-Responders (Number) ([4]; 15 mg): 7 | Non-Responders (Percentage) ([4]; 15 mg): (28.00%) | Responders (Number) ([4]; 15 mg): 18 | Responders (Percentage) ([4]; 15 mg): (72.00%)** | Non-Responders (Number) ([4]; 30 mg): 3 | Non-Responders (Percentage) ([4]; 30 mg): (12.50%) | Responders (Number) ([4]; 30 mg): 21 | Responders (Percentage) ([4]; 30 mg): (87.50%)*** | difference in the proportion of participants who improved relative to placebo ([4]; 30 mg group): three-fold | improvement in ADAS-Cog 11 scores in each treatment dose relative to placebo ([4]; patients with mild AD, 7.5, 15, 30 mg, 12 weeks): significantly higher improvement | improvement in cognition ([4]; population with confirmed early AD (FIG. 2B)): dose-dependent improvement | anterograde and retrograde vesicle transport [5]: Normalized | aSYN in vivo (aSYN [6]): lowers | APP/Abeta, tau/phospho-tau and alpha-synuclein in the spinal fluid [7]: reduction; also recorded: normalized | levels of APP and all its fragments (APP and its fragments): lowers | half-life in CSF ([8]; MCI subjects): > 12 h | tolerability ([8]; doses up to 4×60 mg daily X 10 days): well tolerated | concentration in brain relative to plasma ([8]; in vivo): about 8 times | terminal half-life ([8]; plasma, all doses, biphasic clearance): 4.3 to 4.7 h | aSYN in vitro (aSYN [9]): lowers | memory and learning [10]: Restored
